Laboratory results as given in ChEMBL document CHEMBL2029331, “Red fluorescent scaffold for highly sensitive protease activity probes” (Bioorg Med Chem Lett, 2012).
The source made the active and inactive calls. The rule behind the calls is not given here.

How the values were obtained:
Caspase-3 (Homo sapiens) [1] = biological target: T1, Caspase-3 (Homo sapiens) (UniProt P42574); assay: Activity of caspase3 assessed as SiR600 release by measuring increase in fluorescence intensity at 2 uM after 10 hrs by FRET assay relative to control
T1 sequence (whole entry): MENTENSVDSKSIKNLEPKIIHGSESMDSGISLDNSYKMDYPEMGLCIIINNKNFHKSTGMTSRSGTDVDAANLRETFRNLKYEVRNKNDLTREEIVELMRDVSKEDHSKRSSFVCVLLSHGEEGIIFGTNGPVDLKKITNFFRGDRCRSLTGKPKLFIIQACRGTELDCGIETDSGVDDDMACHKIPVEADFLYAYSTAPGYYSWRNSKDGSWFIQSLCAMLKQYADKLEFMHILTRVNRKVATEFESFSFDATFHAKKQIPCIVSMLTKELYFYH

[2] = biological target: Leucyl-cystinyl aminopeptidase (Homo sapiens) (UniProt Q9UIQ6); assay: Activity of leucine aminopeptidase after 2.5 hrs by spectrophotometry
Chain of Leucyl-cystinyl aminopeptidase (Homo sapiens) (Q9UIQ6 whole entry): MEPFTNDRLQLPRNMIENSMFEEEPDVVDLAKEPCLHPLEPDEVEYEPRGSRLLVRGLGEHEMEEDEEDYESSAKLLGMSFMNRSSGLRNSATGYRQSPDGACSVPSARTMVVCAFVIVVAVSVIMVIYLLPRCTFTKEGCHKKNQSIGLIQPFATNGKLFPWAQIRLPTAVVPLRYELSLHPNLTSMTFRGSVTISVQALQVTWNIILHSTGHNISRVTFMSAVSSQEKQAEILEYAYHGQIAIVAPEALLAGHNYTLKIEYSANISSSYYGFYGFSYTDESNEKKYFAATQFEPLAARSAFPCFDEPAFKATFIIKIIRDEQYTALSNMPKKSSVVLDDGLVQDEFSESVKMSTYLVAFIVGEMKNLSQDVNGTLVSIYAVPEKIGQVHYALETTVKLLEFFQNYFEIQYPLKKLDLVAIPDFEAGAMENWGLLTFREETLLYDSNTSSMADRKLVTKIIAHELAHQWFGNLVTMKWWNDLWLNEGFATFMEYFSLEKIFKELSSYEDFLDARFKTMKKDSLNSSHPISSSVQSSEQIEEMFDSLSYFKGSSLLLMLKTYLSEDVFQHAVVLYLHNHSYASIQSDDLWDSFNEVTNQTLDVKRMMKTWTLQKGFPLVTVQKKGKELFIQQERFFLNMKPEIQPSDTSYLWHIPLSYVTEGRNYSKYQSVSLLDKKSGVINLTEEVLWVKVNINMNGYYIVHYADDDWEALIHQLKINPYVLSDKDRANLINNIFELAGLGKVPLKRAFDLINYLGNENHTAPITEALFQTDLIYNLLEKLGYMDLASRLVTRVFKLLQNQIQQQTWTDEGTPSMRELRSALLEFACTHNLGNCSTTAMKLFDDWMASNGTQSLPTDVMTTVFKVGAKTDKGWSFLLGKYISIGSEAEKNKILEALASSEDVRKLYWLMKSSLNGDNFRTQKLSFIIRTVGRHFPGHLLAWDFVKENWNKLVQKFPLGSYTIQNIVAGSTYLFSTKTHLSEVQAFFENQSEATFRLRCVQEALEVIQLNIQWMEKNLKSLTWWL

Caspase-3 (Homo sapiens) [3] = biological target: T1, Caspase-3 (Homo sapiens); assay: Activity of caspase3 assessed as Kcat/Km ratio after 10 hrs by spectrophotometry relative to Ac-DEVD-AMC

Cc1ccccc1C1=C2C=CC(=N)C=C2[Si](C)(C)c2cc(NC(=O)[C@H](CC(=O)O)NC(=O)[C@@H](NC(=O)[C@H](CCC(=O)O)NC(=O)[C@H](CC(=O)O)NC(=O)OCc3ccccc3)C(C)C)ccc21
fold change (FC) (Caspase-3 (Homo sapiens) [1]): 432 | Activity [2]: Active | fold change (FC) (Caspase-3 (Homo sapiens) [3]): 40
